What was measured:
[1] = Surface tension at 1000 ppm; assay type: physicochemical
Description: (§1) Table 8 summarizes surface tension reduction at 1000 ppm and log reduction of P. aeruginosa at 0 and 10 min. (200 ppm) for two C12 cationic amino alcohol surfactants according to embodiments of the subject invention, LRO (R) and LKO (K), where LRO was produced through the coupling of a lauroyl chloride substrate and arginine ethyl ester and LKO was produced through the coupling of a lauroyl chloride substrate and lysine ethyl ester.
(§2) Table 9 summarizes surface tension reduction at 1000 ppm and log reduction of S. aureus and S. enterica at 0 and 10 min. (200 ppm) for four categories of cationic amino alcohol surfactants according to embodiments of the subject invention.

[2] = test system: Staphylococcus aureus (Gram-positive); assay: Microbial kill study, log reduction of Staphylococcus aureus; assay type: cell-based
Description: (§3) Studies were conducted to determine the antimicrobial capabilities of cationic arginine derivatized surfactants produced according to embodiments of the subject invention.
(§4) The test organisms were a mixture of Gram-negative and Gram-positive organisms, which served to validate the breadth of the spectrum of control and the utility of the technology for common pathogens of public health concern: Pseudomonas aeruginosa (Gram-negative), Staphylococcus aureus (Gram-positive) and Salmonella entericus (Gram-negative).
(§5) Test bacteria were grown at 32° C. for 24-48 hours in tryptic soy broth, then plated at a starting concentration of 10^7. PBS was used for dilution to achieve the desired cell concentration.
(§6) A stock solution of each antimicrobial treatment was created in water, which was then used to create each desired dilution for treatment: 25, 50, 200, 400, 500, 750, 1,000, 1,500, 2,000 and 4,000 ppm, in an appropriate volume of buffer. Buffers included 100 mM of citric acid, ammonium HCL, PBS or sodium bicarbonate.
(§7) The created cell dilution of 10^7 CFU/mL was mixed with either 100 uL to 900 uL of antimicrobial at the appropriate PPM, or 1-9 mL of antimicrobial at the appropriate PPM. The final concentration of the organism was […] once mixed with the antimicrobial.
(§8) The moment the organism was added to the antimicrobial, the timer was started for the desired time period (0, 2, 5, 6 or 10 min). At the end of the timer, the antimicrobial was neutralized, and dilutions were then plated onto TSA plates and incubated for 24-48 hours at 32° C.
(§9) The negative control comprised 0.1 mL from the organism stock plated onto a TSA plate. For the positive control a serial dilution was set up with a starting concentration of 400 PPM quaternary ammonium compound (QAC) and organism. Dilutions were plated at 102, 103 and 104 CFU/mL.
(§10) After 24 to 48 hours of incubation, plates were removed from the incubator and colony numbers were counted.
(§11) The below scale is commonly used in determining a compound's efficacy, where a greater than or equal to 6-fold logarithmic (≥6 log) reduction in less than 10 minutes is needed for disinfection.
as §2
(§12) The surfactants were produced through the coupling of octanoyl chloride (C8); decanoyl chloride (C10); lauroyl chloride (C12); myristyroyl chloride (C14); palmitoyl chloride (C16); or a linear sophorolipid (SLP), with: arginine ethyl ester (R), histidine ethyl ester (H) or lysine ethyl ester (K).

[3] = test system: Salmonella enterica (Gram-negative); assay: Microbial kill study, log reduction of Salmonella enterica; assay type: cell-based
Description: as §3, §4, §5, §6, §7, §8, §9, §10, §11, §2, §12

[4] = test system: Pseudomonas aeruginosa (Gram-negative); assay: Microbial kill study, log reduction of Pseudomonas aeruginosa; assay type: cell-based
Description: as §3, §4, §5, §6, §7, §8, §9, §10, §11, §1

[5] = test system: Staphylococcus aureus (G+); assay: Stability study at pH 7 over 4 days, log reduction of S. aureus; assay type: cell-based; conditions: pH 7, 100 ppm; for Activity Reduction S. aureus (G+) 100 ppm 5 min: loss of log reduction Day 0 to Day 4
Description: FIGS. 3A-3B depict a comparison of pH stability between lauryl arginine ethyl ester (LRE) and a cationic amino alcohol surfactant according to an embodiment of the subject invention (LRO) in different conditions of incubation at pH 7 (A) and pH 10 (B). Oven=45° C., 50% relative humidity; ambient=room temperature.
as §3, §4, §5, §6, §7, §8, §9, §10, §11
Tables 10-11 summarize the pH stability over 4 days for a C12 cationic amino alcohol surfactant according to embodiments of the subject invention, LRO (RO), compared with LAE (RE), where LRO was produced through the coupling of a lauroyl chloride substrate and arginine ethyl ester. Log reductions were measured according to the procedures described above in Example 7.

[6] = test system: Salmonella enterica (G-); assay: Stability study at pH 7 over 4 days, log reduction of S. enterica; assay type: cell-based; conditions: pH 7, 100 ppm; for Activity Reduction S. enterica (G-) 100 ppm 5 min: loss of log reduction Day 0 to Day 4

Molecule | Surface Tension 1000 ppm ([1]; Table 9) [mN/m] | Log Reduction S. aureus (G+) 200 ppm, 0 min [2] | Log Reduction S. aureus (G+) 200 ppm, 10 min [2] | Log Reduction S. enterica (G-) 200 ppm, 0 min [3] | Log Reduction S. enterica (G-) 200 ppm, 10 min [3] | other results
CCCCCCCC(=O)NC(CO)Cc1c[nH]cn1 (centres unmarked) [C8 H O] | 57.78 | 0.00 | 0.00 | 0.00 | 0.00 | 
CCCCCCCC(=O)NC(CO)CCCNC(=N)N (centres unmarked) [C8 R O] | 32.15 | 0.00 | 0.87 | 0.00 | 0.00 | 
CCCCCCCCCC(=O)NC(CO)Cc1c[nH]cn1 (centres unmarked) [C10 H O] | 50.30 | 0.00 | 0.00 | 0.00 | 0.00 | 
CCCCCCCCCC(=O)NC(CO)CCCNC(=N)N (centres unmarked) [C10 R O] | 28.30 | 0.00 | 6.30 | 0.00 | 6.30 | 
CCCCCCCCCCCC(=O)NC(CO)Cc1c[nH]cn1 (centres unmarked) [C12 H O] | 27.36 | 0.00 | 0.00 | 0.00 | 0.00 | 
CCCCCCCCCCCC(=O)NC(CO)CCCCN (centres unmarked) [C12 K O] | 27.82 | 0.00 | 4.60 | 0.00 | 6.16 | Surface Tension 1000 ppm ([1]; Table 8): 27.82 mN/m; Log Reduction 200 ppm, 0 min (Pseudomonas aeruginosa) [4]: 0.54; Log Reduction 200 ppm, 10 min (Pseudomonas aeruginosa) [4]: 6.25
CCCCCCCCCCCC(=O)N[C@@H](CCCNC(=N)N)C(=O)OCC [C12 R E, lauroyl arginine ethyl ester, reference compound] |  |  |  |  |  | Log Reduction S. aureus (G+) 100 ppm, 0 min ([5]; Day 0 Stability): 0.00; Log Reduction S. aureus (G+) 100 ppm, 2 min ([5]; Day 0 Stability): 6.53; Log Reduction S. aureus (G+) 100 ppm, 5 min ([5]; Day 0 Stability): 6.53; Log Reduction S. aureus (G+) 100 ppm, 0 min ([5]; Day 4 Accelerated Stability): 0.00; Log Reduction S. aureus (G+) 100 ppm, 2 min ([5]; Day 4 Accelerated Stability): 0.93; Log Reduction S. aureus (G+) 100 ppm, 5 min ([5]; Day 4 Accelerated Stability): 1.14; Activity Reduction S. aureus (G+) 100 ppm 5 min [5]: 82.54%; Log Reduction S. enterica (G-) 100 ppm, 0 min ([6]; Day 0 Stability): 0.00; Log Reduction S. enterica (G-) 100 ppm, 2 min ([6]; Day 0 Stability): 6.42; Log Reduction S. enterica (G-) 100 ppm, 5 min ([6]; Day 0 Stability): 6.42; Log Reduction S. enterica (G-) 100 ppm, 0 min ([6]; Day 4 Accelerated Stability): 0.00; Log Reduction S. enterica (G-) 100 ppm, 2 min ([6]; Day 4 Accelerated Stability): 0.00; Log Reduction S. enterica (G-) 100 ppm, 5 min ([6]; Day 4 Accelerated Stability): 0.00; Activity Reduction S. enterica (G-) 100 ppm 5 min [6]: 100.00%
CCCCCCCCCCCC(=O)NC(CO)CCCNC(=N)N (centres unmarked) [C12 R O, lauryl argininol alcohol] | 23.75 | 0.00 | 6.24 | 0.00 | 6.20 | Surface Tension 1000 ppm ([1]; Table 8): 23.75 mN/m; Log Reduction S. aureus (G+) 100 ppm, 0 min ([5]; Day 0 Stability): 0.00; Log Reduction S. aureus (G+) 100 ppm, 2 min ([5]; Day 0 Stability): 2.17; Log Reduction S. aureus (G+) 100 ppm, 5 min ([5]; Day 0 Stability): 6.53; Log Reduction S. aureus (G+) 100 ppm, 0 min ([5]; Day 4 Accelerated Stability): 0.00; Log Reduction S. aureus (G+) 100 ppm, 2 min ([5]; Day 4 Accelerated Stability): 0.76; Log Reduction S. aureus (G+) 100 ppm, 5 min ([5]; Day 4 Accelerated Stability): 6.53; Activity Reduction S. aureus (G+) 100 ppm 5 min [5]: 0.00%; Log Reduction S. enterica (G-) 100 ppm, 0 min ([6]; Day 0 Stability): 0.00; Log Reduction S. enterica (G-) 100 ppm, 2 min ([6]; Day 0 Stability): 1.32; Log Reduction S. enterica (G-) 100 ppm, 5 min ([6]; Day 0 Stability): 2.36; Log Reduction S. enterica (G-) 100 ppm, 0 min ([6]; Day 4 Accelerated Stability): 0.00; Log Reduction S. enterica (G-) 100 ppm, 2 min ([6]; Day 4 Accelerated Stability): 0.00; Log Reduction S. enterica (G-) 100 ppm, 5 min ([6]; Day 4 Accelerated Stability): 0.79; Activity Reduction S. enterica (G-) 100 ppm 5 min [6]: 66.53%; Log Reduction 200 ppm, 0 min (Pseudomonas aeruginosa) [4]: 1.85; Log Reduction 200 ppm, 10 min (Pseudomonas aeruginosa) [4]: 6.25
CCCCCCCCCCCCCC(=O)NC(CO)Cc1c[nH]cn1 (centres unmarked) [C14 H O] | 22.77 | 0.00 | 0.00 | 0.00 | 0.00 | 
CCCCCCCCCCCCCC(=O)NC(CO)CCCNC(=N)N (centres unmarked) [C14 R O] | 39.54 | 0.00 | 6.36 | 0.00 | 6.11 | 
CCCCCCCCCCCCCCCC(=O)NC(CO)CCCNC(=N)N (centres unmarked) [C16 R O] | 37.63 | 0.00 | 4.10 | 0.00 | 2.86 | 
linear sophorolipid argininol amide [SLP R O] | 41.89 | 0.00 | 2.23 | 0.00 | 0.00 | 
